Data taken from PMC8584244 (International Journal of Molecular Sciences, 2021).
≈ marks a conversion by molar mass, not a printed value. Where two headings read alike, the source gives them in different places.

Columns and labels:
H. pylori ATCC43504 = assay: MIC and MBC by broth micro-dilution with alamarBlue; assay type: cell-based; details: Helicobacter pylori
Experimental: H. pylori colonies were collected and inoculated in Brucella Broth (BB; Oxoid Ltd., Hampshire, UK) added with 2% (v/v) of foetal bovine serum (FBS; Sigma Aldrich, Milan, Italy). […] Oxoid Ltd., Hampshire, UK). […] The MIC was determined by the broth micro-dilution method, following the guidelines of the Clinical and Laboratory Standards Institute. […] Carvacrol and thymol were resuspended in dimethyl sulfoxide (DMSO, Sigma-Aldrich, Milan, Italy) and were diluted in the liquid culture medium described above. […] The controls consisted of: (I) H. pylori broth culture; (II) BB plus 2% (v/v) of FBS, with the addition of the two CA inhibitors or amoxicillin at different concentrations; (III) just BB plus 2% (v/v) of FBS. Three independent experiments were performed in triplicate. The plates were then incubated at 37 °C for 72 h under microaerophilic conditions. […] AlamarBlue was added at 10% in each well, following the manufacturer instructions, and the plates were placed in an incubator for 4 h at 37 °C in microaerophilic conditions. After the incubation, the percentage of alamarBlue reduction of treated and untreated samples was determined, as previously described. The minimum bactericidal concentration (MBC) was determined by using the same wells stained with alamarBlue. Briefly, 100 μL of the bacterial suspensions, taken from the blue-violet wells, were seeded on the selected agar plates and incubated at 37 °C for 3–5 days in microaerophilic conditions.

[1] = system: L. acidophilus ATCC SD5214; assay: MIC and MBC by broth microdilution in MRSB; assay type: cell-based; details: Lactobacillus acidophilus
[2] = system: L. rhamnosus GG ATCC 53103; assay: MIC and MBC by broth microdilution in MRSB; assay type: cell-based, Lactobacillus rhamnosus; details: Lacticaseibacillus rhamnosus
L. reuteri DSM 17938 = assay: MIC and MBC by broth microdilution in MRSB; assay type: cell-based, Lactobacillus reuteri; details: Limosilactobacillus reuteri
[3] = system: H. pylori ATCC43504 biofilm; assay: antibiofilm activity (alamarBlue, CFU count, crystal violet, Live/Dead fluorescence microscopy); assay type: cell-based, Helicobacter pylori; details: for CFU count of biofilm / inhibition of H. pylori biofilm development: sub-MIC (carvacrol, thymol 64 µg/mL; amoxicillin 0.016 µg/mL); for biofilm observed by fluorescence microscopy (Live/Dead): sub-MIC treated samples, 72 h of incubation
Experimental: The CA inhibitors and amoxicillin were diluted in liquid culture medium consisting of BB supplemented with 2% (v/v) of FBS and 0.3% (w/v) of glucose. […] The controls consisted of: […] The antibiofilm assay was performed in 96-well flat bottom microtiter plates (Eppendorf, Hamburg, Germany). The biofilm formation in the controls and treated samples was evaluated in 35 mm Petri dishes (Eppendorf, Hamburg, Germany) stained with Live/Dead staining and visualized by fluorescence microscope. Three independent experiments were performed in triplicate. The plates were incubated at 37 °C for 72 h under microaerophilic conditions. After 72 h of incubation, the minimum biofilm inhibitory concentration (MBIC) was determined through the alamarBlue assay, the CFU count, and the crystal violet (CV) assay (Sigma Aldrich, St. Louis, MO, USA). In detail, at the end of the incubation, the non-adherent cells, corresponding to the planktonic supernatant, were removed, and the biofilms were washed with 100 µL of DPBS (Sigma Aldrich, St. Louis, MO, USA). AlamarBlue was diluted to 10% in the selected culture medium, and 100 µL was added to each sample in the wells. The samples were incubated for 4 h at 37 °C in microaerophilic conditions, and subsequently the percentage of alamarBlue reduction was determined. The CFU count was carried out starting from the wells stained with alamarBlue. […] Serial dilutions of the stock were performed in DPBS, plated on the selected agar, and incubated at 37 °C under microaerophilic conditions for 3–5 days. The antibiofilm activity was also determined through crystal violet staining following the procedure indicated. Then, the absorbance at 590 nm was measured, and the percentage of biofilm biomass, normalized to the control, was determined. […] The biofilms developed in 35 mm Petri dishes were stained with Live/Dead™ BacLight™ Bacterial Viability Kit (Life Technologies Carlsbad, CA, USA) as previously reported and immediately visualized at the fluorescence microscope.

[4] = system: H. pylori ATCC43504 planktonic and biofilm phenotypes; assay type: cell-based, Helicobacter pylori
H. pylori [5] = details: Helicobacter pylori
H. pylori [6] = assay: flow cytometry detection of cell viability (Live/Dead BacLight); details: sub-MIC treated samples, SYTO 9/propidium iodide
(UniProt Q9ZK30) = assay: biochemical; parameters: species or system Helicobacter pylori; details: read-out: Ki HpCAα
HpCAβ [7] = biological target: T1, HpCAβ (Helicobacter pylori, UniProt O24855); assay: biochemical; details: mean from three assays, errors ±5–10%
T1 sequence (O24855 1-221): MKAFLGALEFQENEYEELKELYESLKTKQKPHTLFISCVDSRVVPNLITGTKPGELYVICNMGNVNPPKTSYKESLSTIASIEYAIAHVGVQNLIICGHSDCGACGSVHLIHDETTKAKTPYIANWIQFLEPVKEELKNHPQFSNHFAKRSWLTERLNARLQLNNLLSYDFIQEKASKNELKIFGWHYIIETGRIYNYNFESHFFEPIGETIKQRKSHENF

PgiCAβ = PgiCAβ (Porphyromonas gingivalis, UniProt B2RL07); assay: stopped-flow CO2 hydrase assay, PgiCAβ; assay type: biochemical
SmuCA = SmuCA (Streptococcus mutans, UniProt Q8DVY1); assay: stopped-flow CO2 hydrase assay, SmuCA; assay type: biochemical
MgCA = MgCA (Malassezia globosa, UniProt A8Q1N3); assay: stopped-flow CO2 hydrase assay, MgCA; assay type: biochemical
[8] = system: several reference and clinical H. pylori strains; parameters: method as in PMID 33228095, PMID 33805064; details: cited from earlier work
AGS cells = system: AGS cells; parameters: method as in PMID 33228095, PMID 33805064; details: read-out: IC50 against AGS cells; cited from earlier work
HpCAβ [9] = biological target: T1, HpCAβ; details: both HpCAs; cited from earlier work
[10] = system: H. pylori ATCC43504/NCTC11637; details: characterisation of reference strain ATCC43504/NCTC11637; no reference given; cited from earlier work
hCA I = biological target: T2, hCA I (Homo sapiens, UniProt P00915); assay: stopped-flow CO2 hydrase assay, hCA I; assay type: biochemical
T2 construct: made in house; host or cells: Escherichia coli (DE3)

hCA II = biological target: T3, hCA II (Homo sapiens, UniProt P00918); assay: stopped-flow CO2 hydrase assay, hCA II; assay type: biochemical
T3 construct: made in house; host or cells: Escherichia coli (DE3)

hCA VI = biological target: T4, hCA VI (Homo sapiens, UniProt P23280); assay: stopped-flow CO2 hydrase assay, hCA VI; assay type: biochemical
T4 construct: made in house; host or cells: Escherichia coli (DE3)

[11] = H. pylori ATCC43504, 72 h, microaerophilic, read-out: MIC
[12] = H. pylori ATCC43504, read-out: MBC
[13] = ATCCSD5214, L. acidophilus ATCC SD5214, 24 h, anaerobic, read-out: MIC
[14] = ATCCSD5214, L. acidophilus ATCC SD5214, read-out: MBC
[15] = ATCC53103, L. rhamnosus GG ATCC 53103, 24 h, anaerobic, read-out: MIC
[16] = ATCC53103, L. rhamnosus GG ATCC 53103, read-out: MBC
[17] = DSM17938, L. reuteri DSM 17938, 24 h, anaerobic, read-out: MIC
[18] = DSM17938, L. reuteri DSM 17938, read-out: MBC
[19] = Planktonic T (treated with sub-MIC concentration)
[20] = biofilm phenotype, sub-MIC concentration
[21] = planktonic phenotype, sub-MIC concentration

Sequence of SmuCA (Q8DVY1 1-166): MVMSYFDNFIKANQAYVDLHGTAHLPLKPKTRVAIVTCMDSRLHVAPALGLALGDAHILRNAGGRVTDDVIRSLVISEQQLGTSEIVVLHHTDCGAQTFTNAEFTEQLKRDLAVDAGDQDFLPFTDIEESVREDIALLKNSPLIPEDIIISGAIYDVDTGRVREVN
Sequence of MgCA (A8Q1N3 1-241): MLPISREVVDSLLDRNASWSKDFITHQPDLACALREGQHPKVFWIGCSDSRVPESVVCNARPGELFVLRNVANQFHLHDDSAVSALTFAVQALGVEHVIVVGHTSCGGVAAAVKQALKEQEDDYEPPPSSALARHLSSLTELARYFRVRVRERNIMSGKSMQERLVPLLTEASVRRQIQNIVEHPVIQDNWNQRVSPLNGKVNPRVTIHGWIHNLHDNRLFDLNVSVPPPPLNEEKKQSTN
Sequence of PgiCAβ (B2RL07 19-242): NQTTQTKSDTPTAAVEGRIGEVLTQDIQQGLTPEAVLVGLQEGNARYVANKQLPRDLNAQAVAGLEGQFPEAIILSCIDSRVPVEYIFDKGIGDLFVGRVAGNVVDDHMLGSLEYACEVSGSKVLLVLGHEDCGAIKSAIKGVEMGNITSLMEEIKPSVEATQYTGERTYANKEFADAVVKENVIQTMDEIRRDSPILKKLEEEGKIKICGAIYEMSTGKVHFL
T4 sequence (P23280 18-308): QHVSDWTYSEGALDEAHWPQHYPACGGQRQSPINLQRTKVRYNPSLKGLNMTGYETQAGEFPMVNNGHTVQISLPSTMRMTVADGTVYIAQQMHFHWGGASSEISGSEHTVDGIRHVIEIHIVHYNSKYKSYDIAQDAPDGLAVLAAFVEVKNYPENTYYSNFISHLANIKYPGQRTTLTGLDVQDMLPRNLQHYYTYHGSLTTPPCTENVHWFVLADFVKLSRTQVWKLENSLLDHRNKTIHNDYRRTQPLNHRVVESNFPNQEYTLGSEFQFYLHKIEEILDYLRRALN
T2 sequence (P00915 whole entry): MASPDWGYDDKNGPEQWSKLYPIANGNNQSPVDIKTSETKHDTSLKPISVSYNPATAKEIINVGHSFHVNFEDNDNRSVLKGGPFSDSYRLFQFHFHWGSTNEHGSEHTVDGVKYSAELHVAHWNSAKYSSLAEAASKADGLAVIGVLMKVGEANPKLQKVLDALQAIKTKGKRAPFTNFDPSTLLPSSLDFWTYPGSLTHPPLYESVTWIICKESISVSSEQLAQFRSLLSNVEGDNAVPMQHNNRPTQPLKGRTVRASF
Sequence of (UniProt Q9ZK30) (Q9ZK30 19-247 limits assumed): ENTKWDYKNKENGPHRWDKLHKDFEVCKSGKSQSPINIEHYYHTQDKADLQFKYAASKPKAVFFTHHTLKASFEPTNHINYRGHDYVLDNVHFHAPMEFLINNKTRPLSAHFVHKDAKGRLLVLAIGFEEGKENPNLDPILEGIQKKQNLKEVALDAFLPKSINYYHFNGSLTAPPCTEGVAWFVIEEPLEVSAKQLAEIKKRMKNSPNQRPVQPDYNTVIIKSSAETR

## CC1(C)S[C@@H]2[C@H](NC(=O)[C@H](N)c3ccc(O)cc3)C(=O)N2[C@H]1C(=O)O [amoxicillin, reference compound]
H. pylori ATCC43504; [11]
  MIC: 0.032 µg/mL (≈ 0.0876 µM)
H. pylori ATCC43504; [12]
  MBC: 0.032 µg/mL (≈ 0.0876 µM)
[1]; [13]
  MIC: 0.25 µg/mL (≈ 0.684 µM)
[1]; [14]
  MBC: 0.25 µg/mL (≈ 0.684 µM)
[2]; [15]
  MIC: 1 µg/mL (≈ 2.74 µM)
[2]; [16]
  MBC: 1 µg/mL (≈ 2.74 µM)
L. reuteri DSM 17938; [17]
  MIC: 16 µg/mL (≈ 43.8 µM)
L. reuteri DSM 17938; [18]
  MBC: 64 µg/mL (≈ 175 µM)
[3]; 72 h
  CFU count of biofilm: 1.92 × 10^7 CFUs
  inhibition of H. pylori biofilm development: did not inhibit H. pylori biofilm formation
[3]
  biofilm observed by fluorescence microscopy (Live/Dead): well-structured biofilm with some dead cells
[4]; Biofilm T (treated with sub-MIC concentration)
  % OMV eDNA+/Total OMVs: 36.09%
[4]; [19]
  % OMV eDNA+/Total OMVs: 16.52%
[4]; [20]
  bOMV eDNA+ versus untreated: no differences
  total bOMVs versus untreated: no differences
[4]; [21]
  pOMV eDNA+ count versus untreated: decrease
  total pOMVs count versus untreated: decrease
H. pylori [5]
  viability (flow cytometry): around 64%
H. pylori [6]
  live cells (flow cytometry): 3.18 × 10^6 live cells/mL

## Cc1ccc(C(C)C)cc1O [carvacrol]
(UniProt Q9ZK30)
  Ki: 8.4 µM
HpCAβ [7]
  Ki: 13.3 µM
PgiCAβ
  Ki: 28 µM
SmuCA
  Ki: 86.6 µM
MgCA
  Ki: 6.8 µM
H. pylori ATCC43504; ATCC43504
  MBC: 256 µg/mL (≈ 1700 µM)
H. pylori ATCC43504; ATCC43504, 72 h
  MIC: 128 µg/mL (≈ 852 µM)
[1]; ATCCSD5214
  MBC: > 16000 µg/mL
[1]; ATCCSD5214, 24 h
  MIC: > 16000 µg/mL
[2]; ATCC53103
  MBC: > 16000 µg/mL
[2]; ATCC53103, 24 h
  MIC: > 16000 µg/mL
L. reuteri DSM 17938; DSM17938
  MBC: > 8000 µg/mL
  MIC: 8000 µg/mL (≈ 53300 µM)
L. reuteri DSM 17938; DSM17938, 24 h
  MIC: 8000 µg/mL (≈ 53300 µM)
[3]
  biofilm biomass percentage (crystal violet) versus untreated samples: significantly lower
  percentage of alamarBlue reduction in respect to the corresponding controls: about 80%
  biofilm observed by fluorescence microscopy (Live/Dead): no biofilm formation
[3]; 72 h
  CFU count of biofilm: No CFUs were observed
  inhibition of H. pylori biofilm development: ability to inhibit the development of the H. pylori mature biofilm
[4]
  pOMV eDNA+ count versus untreated: no differences were found
  total pOMVs count versus untreated: lower count
[4]; [19]
  % OMV eDNA+/Total OMVs: 32.53%
[8]
  MIC range: 16 to 64 µg/mL
AGS cells
  IC50: 300 ± 6.5 µM
H. pylori [6]
  live cells (flow cytometry): 3.80 × 10^4 live cells/mL
  viability (flow cytometry): 35%

## NC(N)=Nc1nc(CSCCC(N)=NS(N)(=O)=O)cs1 [famotidine]
HpCAβ [9]
  inhibitory profile toward HpCAβ: nanomolar range

## Cc1ncc([N+](=O)[O-])n1CCO [metronidazole]
[10]
  MIC range: 64 to 256 µg/mL

## Cc1ccc(C(C)C)c(O)c1 [thymol]
hCA I
  Ki: > 100 µM
hCA II
  Ki: > 100 µM
hCA VI
  Ki: > 100 µM
HpCAβ [7]
  Ki: 3.4 µM
PgiCAβ
  Ki: 48.9 µM
SmuCA
  Ki: 84.9 µM
MgCA
  Ki: > 100 µM
H. pylori ATCC43504; [11]
  MIC: 128 µg/mL (≈ 852 µM)
H. pylori ATCC43504; [12]
  MBC: 256 µg/mL (≈ 1700 µM)
[1]; [13]
  MIC: > 16000 µg/mL
[1]; [14]
  MBC: > 16000 µg/mL
[2]; [15]
  MIC: > 16000 µg/mL
[2]; [16]
  MBC: > 16000 µg/mL
L. reuteri DSM 17938; [17]
  MIC: 4000 µg/mL (≈ 26600 µM)
L. reuteri DSM 17938; DSM17938, L. reuteri DSM 17938, text, read-out: MIC
  MIC: 4000 µg/mL (≈ 26600 µM)
L. reuteri DSM 17938; [18]
  MBC: > 4000 µg/mL
[3]; sub-MIC 64 µg/mL, 72 h
  biofilm biomass percentage (crystal violet) versus untreated samples: significantly lower
[3]; sub-MIC 64 µg/mL, biofilm, 72 h
  percentage of alamarBlue reduction in respect to the corresponding controls: ~85%
[3]; 72 h
  CFU count of biofilm: No CFUs were observed
  inhibition of H. pylori biofilm development: ability to inhibit the development of the H. pylori mature biofilm
[3]
  biofilm observed by fluorescence microscopy (Live/Dead): no biofilm formation
[4]; [19]
  % OMV eDNA+/Total OMVs: 35.47%
[4]; [21]
  pOMV eDNA+ count versus untreated: significative difference
  total pOMVs count versus untreated: significative difference
H. pylori [5]
  viability (flow cytometry): around 32%
[8]
  MIC range: 64 to 128 µg/mL
AGS cells
  IC50: 200 ± 6.5 µM
H. pylori [6]
  live cells (flow cytometry): 3.00 × 10^5 live cells/mL
